ChEMBL document CHEMBL4689842, “EUbOPEN Chemogenomics Library wave 1” (2021)

How the values were obtained:
Assay type in all cases: toxicity, cell-based
[1] = system: HEK-293T; assay: Incucyte cell viability with HEK293T; settings: human, 10 µM, compound concentration 10 uM
[2] = system: Fibroblast; assay: Incucyte cell viability with human fibroblast; settings: 10 µM, compound concentration 10 uM
[3] = system: U2OS; assay: Incucyte cell viability with U2OS; settings: human, 10 µM, compound concentration 10 uM
[4] = 0 h, replicate number 1, timepoint 0 hours
[5] = 6 h, replicate number 1, timepoint 6 hours
[6] = 12 h, replicate number 1, timepoint 12 hours
[7] = 18 h, replicate number 1, timepoint 18 hours
[8] = 24 h, replicate number 1, timepoint 24 hours
[9] = 24 h, replicate number 2, timepoint 24 hours
[10] = 6 h, replicate number 2, timepoint 6 hours
[11] = 12 h, replicate number 2, timepoint 12 hours
[12] = 18 h, replicate number 2, timepoint 18 hours
[13] = 0 h, replicate number 2, timepoint 0 hours
Further: filed as whole numbers so only -1 and 0 and 1 occur.

| Compound | Growth Rate [1, 4] | Growth Rate [1, 5] | Growth Rate [1, 6] | Growth Rate [1, 7] | Growth Rate [1, 8] | Growth Rate [2, 4] | Growth Rate [2, 5] | Growth Rate [2, 6] | Growth Rate [2, 7] | Growth Rate [2, 8] | Growth Rate [2, 9] | Growth Rate [3, 4] | Growth Rate [3, 10] | Growth Rate [3, 6] | Growth Rate [3, 11] | Growth Rate [3, 7] | Growth Rate [3, 8] | Growth Rate [1, 9] | Growth Rate [3, 5] | Growth Rate [1, 10] | further results |
| --- | --- | --- | --- | --- | --- | --- | --- | --- | --- | --- | --- | --- | --- | --- | --- | --- | --- | --- | --- | --- | --- |
| C[C@H](Cc1cc2c(c(C(N)=O)c1)N(CCCO)CC2)NCCOc1ccccc1OCC(F)(F)F [SILODOSIN] | 0 | 0 | 0 | 0 | 0 | 0 | 0 | 0 | 0 | 1 | 0 | 0 | 0 | 1 | 0 | 1 | 1 | – | – | – | Growth Rate [3, 9]: 0 |
| NC(=O)c1ccc(NC(=O)NCc2cccc(C(=O)Nc3ccc4c(c3)CNCC4)c2)cc1 | 0 | – | – | 1 | 0 | 0 | 0 | 0 | 1 | 1 | – | 0 | – | 1 | – | 1 | 1 | 1 | 0 | – | Growth Rate [2, 10]: 1 |
| CN(C)C(=O)c1ccc(-c2cc(C(=O)N[C@@H]3CCc4ccccc43)no2)cc1O | 1 | – | – | – | 1 | 0 | 1 | 0 | 1 | 0 | 1 | 0 | – | 0 | 1 | 0 | 1 | – | 0 | 0 | Growth Rate [1, 11]: 0; Growth Rate [3, 12]: 1 |
| CCc1cc(C(C)=O)c(O)cc1OCCCCCC(C)(C)c1nn[nH]n1 [LY-255283] | 0 | 1 | 0 | 0 | 0 | 0 | 0 | 0 | 0 | 0 | – | 0 | 0 | 1 | 0 | 1 | 1 | 1 | – | 0 | Growth Rate [3, 12]: 0; Growth Rate [3, 9]: 0 |
| CN([C@@H]1CCc2c(CC(=O)O)c3cc(S(C)(=O)=O)ccc3n2C1)S(=O)(=O)c1ccc(F)cc1 [CRTH2-negative-control] | 1 | 0 | 0 | 0 | 0 | 0 | – | 1 | 1 | 1 | 0 | 0 | – | 1 | 0 | 0 | 0 | 1 | 0 | 1 | Growth Rate [1, 13]: 0; Growth Rate [1, 11]: 1; Growth Rate [1, 12]: 1; Growth Rate [2, 10]: 0; Growth Rate [2, 11]: 0; Growth Rate [2, 12]: 0; Growth Rate [3, 12]: 1 |
| O=C(O)c1ccc(-c2coc3ncc(-c4ccccc4)cc23)cc1Cl | 0 | 0 | 0 | 0 | 0 | – | 1 | 0 | 0 | 0 | – | – | 0 | 1 | – | 1 | 1 | – | 1 | 1 | Growth Rate [1, 13]: 1; Growth Rate [2, 13]: 0; Growth Rate [2, 10]: 0; Growth Rate [3, 13]: 0 |
| CN(c1ccnc(CNc2nc(Nc3ccc4c(c3)CC(=O)N4)ncc2C(F)(F)F)n1)S(C)(=O)=O [PF-00911705] | – | 0 | 0 | 0 | 0 | 0 | – | 1 | 0 | 1 | 0 | – | – | 0 | – | 0 | 0 | – | 0 | – | Growth Rate [2, 10]: 0; Growth Rate [2, 11]: 0; Growth Rate [3, 13]: 0 |
| COc1ccc2cc(OCC3(C(=O)O)CN(C(=O)c4ccc(F)cc4)C3)ccc2c1 [PF-04418948] | 0 | 1 | 1 | 1 | 1 | 0 | 0 | 0 | 0 | 0 | 1 | 0 | 0 | 1 | 0 | 1 | 1 | – | – | 0 | Growth Rate [1, 12]: 0; Growth Rate [2, 10]: 1; Growth Rate [2, 12]: 1; Growth Rate [3, 12]: 0; Growth Rate [3, 9]: 0 |
| COc1cc(-c2cn([C@H]3CCc4c(F)cccc4N(CC(F)(F)F)C3=O)nn2)ccc1-n1cnc(C)c1 | 0 | 0 | 0 | 1 | 1 | 0 | 0 | 1 | 1 | 1 | 0 | 0 | 1 | 0 | 1 | 0 | 0 | 0 | 0 | – | Growth Rate [1, 13]: 1; Growth Rate [2, 11]: 0; Growth Rate [2, 12]: 0; Growth Rate [3, 12]: 1; Growth Rate [3, 9]: 1 |
| C[C@H]1CC(=O)Nc2cc(C(=O)NCCC3CC3)ccc2N1C(=O)N1CC2CC2C1 (some centres undefined) | 0 | – | – | 1 | 0 | 0 | 0 | 1 | 0 | 1 | 0 | 1 | – | 1 | – | 1 | 1 | 1 | 0 | 1 | Growth Rate [1, 13]: 1; Growth Rate [1, 11]: 0; Growth Rate [2, 11]: 0 |
| CN([C@@H]1CCc2c(CC(=O)O)c3ccccc3n2C1)S(=O)(=O)c1ccc(F)cc1 [MK-7246] | 0 | 0 | 0 | 0 | 0 | 0 | 0 | 0 | 0 | 0 | – | 0 | 0 | 1 | – | 1 | 0 | 1 | – | 1 | Growth Rate [1, 12]: 1; Growth Rate [2, 11]: 1; Growth Rate [2, 12]: 1; Growth Rate [3, 9]: 1 |
| CC1(C)CCC(C)(C)c2cc(C3(c4ccc(C(=O)O)cc4)OCCO3)ccc21 | 0 | – | 1 | 1 | 1 | 0 | 1 | 1 | 1 | 1 | – | 0 | 0 | 1 | 0 | 1 | 1 | – | – | 0 | Growth Rate [3, 12]: 0 |
